Measurements as given in patent US8952024B2, “Herbicidal pyrimidone derivatives” (E I du Pont de Nemours and Company, priority 2009, dated 2015).

Tests used:
Type in all cases: in vivo
[1] = test system: windgrass (Apera spica-venti); test: Test B postemergence plant response
Procedure, shortened: (§1)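 Plants grown in peat/vermiculite medium were sprayed postemergence at 2–18 cm height (1- to 4-leaf stage). After 13–15 days in the greenhouse, response was rated visually against untreated controls on a 0–100 scale (0 no effect, 100 complete control).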

[2] = test system: canarygrass (Phalaris minor); test: Test B postemergence plant response
Procedure, shortened: as §1

[3] = test system: chickweed (Stellaria media); test: Test B postemergence plant response
Procedure, shortened: as §1

[4] = test system: bermudagrass (Cynodon dactylon); test: Test B pre-/postemergence plant response
Excerpt: (§2) Seeds of plant species selected from blackgrass (Alopecurus myosuroides), downy bromegrass (Bromus tectorum), green foxtail (Setaria viridis), Italian ryegrass (Lolium multiflorum), wheat (Triticum aestivum), wild oat (Avena fatua), deadnettle (henbit deadnettle, Lamium amplexicaule), galium (catchweed bedstraw, Galium aparine), bermudagrass (Cynodon dactylon), Surinam grass (Brachiaria decumbens), cocklebur (Xanthium strumarium), corn (Zea mays), large crabgrass (Digitaria sanguinalis), woolly cupgrass (Eriochloa villosa), giant foxtail (Setaria faberii), goosegrass (Eleusine indica), johnsongrass (Sorghum halepense), kochia (Kochia scoparia), lambsquarters (Chenopodium album), morningglory (Ipomoea coccinea), nightshade (eastern black nightshade, Solanum ptycanthum), yellow nutsedge (Cyperus esculentus), pigweed (Amaranthus retroflexus), ragweed (common ragweed, Ambrosia elatior), Russian thistle (Salsola kali), soybean (Glycine max), sunflower (common oilseed sunflower, Helianthus annuus) and velvetleaf (Abutilon theophrasti) were planted into a blend of loam soil and sand and treated preemergence with test compounds formulated in a non-phytotoxic solvent mixture which included a surfactant.
(§3) At the same time, plants selected from these crop and weed species and also winter barley (Hordeum vulgare), canarygrass (Phalaris minor), chickweed (Stellaria media) and windgrass (Apera spica-venti) were planted in pots containing Redi-Earth® planting medium (Scotts Company, 14111 Scottslawn Road, Marysville, Ohio 43041) comprising spaghnum peat moss, vermiculite, wetting agent and starter nutrients and treated with postemergence applications of some of the test chemicals formulated in the same manner. Plants ranged in height from 2 to 18 cm (1- to 4-leaf stage) for postemergence treatments.
(§4) Treated plants and controls were maintained in a greenhouse for 13 to 15 days, after which time all treated plants were visually evaluated and compared to controls. Plant response ratings, summarized in Table B, are based on a scale of 0 to 100 where 0 is no effect and 100 is complete control. A dash (-) response means no test result.

[5] = test system: velvetleaf (Abutilon theophrasti); test: Test B pre-/postemergence plant response
Excerpt: as §2, §3, §4

[6] = test system: cocklebur (Xanthium strumarium); test: Test B pre-/postemergence plant response
Excerpt: as §2, §3, §4

[7] = test system: johnsongrass (Sorghum halepense); test: Test B pre-/postemergence plant response
Excerpt: as §2, §3, §4

[8] = test system: ragweed (common ragweed, Ambrosia elatior); test: Test B pre-/postemergence plant response
Excerpt: as §2, §3, §4

[9] = test system: soybean (Glycine max); test: Test B pre-/postemergence plant response
Excerpt: as §2, §3, §4

[10] = test system: blackgrass (Alopecurus myosuroides); test: Test B pre-/postemergence plant response
Excerpt: as §2, §3, §4

[11] = test system: morningglory (Ipomoea coccinea); test: Test B pre-/postemergence plant response
Excerpt: as §2, §3, §4

[12] = test system: giant foxtail (Setaria faberii); test: Test B pre-/postemergence plant response
Excerpt: as §2, §3, §4

[13] = test system: green foxtail (Setaria viridis); test: Test B pre-/postemergence plant response
Excerpt: as §2, §3, §4

[14] = test system: wheat (Triticum aestivum); test: Test B pre-/postemergence plant response
Excerpt: as §2, §3, §4

[15] = test system: wild oat (Avena fatua); test: Test B pre-/postemergence plant response
Excerpt: as §2, §3, §4

[16] = test system: downy bromegrass (Bromus tectorum); test: Test B pre-/postemergence plant response
Excerpt: as §2, §3, §4

[17] = test system: yellow nutsedge (Cyperus esculentus); test: Test B pre-/postemergence plant response
Excerpt: as §2, §3, §4

[18] = test system: kochia (Kochia scoparia); test: Test B pre-/postemergence plant response
Excerpt: as §2, §3, §4

[19] = 31 g ai/ha, postemergence, scale 0 to 100, 0 is no effect, 100 is complete control
[20] = 62 g ai/ha, postemergence, 0 is no effect, 100 is complete control, 13 to 15 days
[21] = Postemergence, 125 g ai/ha, visual rating after 13 to 15 days, scale 0 (no effect) to 100 (complete control)
[22] = Postemergence, 250 g ai/ha, scale 0 to 100 (0 no effect, 100 complete control)
[23] = 250 g ai/ha, Preemergence, 0 to 100 scale
[24] = Preemergence, 31 g ai/ha, scale 0 to 100 (0 no effect, 100 complete control)
[25] = Preemergence, 62 g ai/ha, scale 0 to 100, 0 no effect, 100 complete control
[26] = Preemergence, 125 g ai/ha, scale 0 to 100, 0 no effect, 100 complete control

CCCc1ncc(C(=O)C2=C(O)CCCC2=O)c(=O)n1CCC [Compound 72]
Plant response rating, Windgrass [1, 19]: 5
Windgrass plant response rating (0 to 100 scale) [1, 20]: 20
Plant response rating, Windgrass [1, 21]: 60
Plant response rating, Windgrass [1, 22]: 65
Plant response rating, Canarygrass [2, 19]: 0
Canarygrass plant response rating (0 to 100 scale) [2, 20]: 0
Plant response rating, Canarygrass [2, 21]: 0
Plant response rating, Canarygrass [2, 22]: 0
Plant response rating, Chickweed [3, 19]: 70
Chickweed plant response rating (0 to 100 scale) [3, 20]: 85
Plant response rating, Chickweed [3, 21]: 90
Plant response rating, Chickweed [3, 22]: 90
Plant response rating, Bermudagrass [4, 19]: 75
Bermudagrass plant response rating (0 to 100 scale) [4, 20]: 80
Plant response rating, Bermudagrass [4, 23]: 100
Plant response rating, Bermudagrass [4, 21]: 85
Plant response rating, Bermudagrass [4, 22]: 85
Plant response rating, Bermudagrass [4, 24]: 95
Plant response rating, Bermudagrass [4, 25]: 98
Plant response rating, Bermudagrass [4, 26]: 98
Plant response rating, Velvetleaf [5, 19]: 98
Velvetleaf plant response rating (0 to 100 scale) [5, 20]: 100
Plant response rating, Velvetleaf [5, 21]: 100
Plant response rating, Velvetleaf [5, 22]: 100
Plant response rating, Velvetleaf [5, 24]: 98
Plant response rating, Velvetleaf [5, 25]: 100
Plant response rating, Velvetleaf [5, 26]: 100
Plant response rating, Cocklebur [6, 19]: 75
Cocklebur plant response rating (0 to 100 scale) [6, 20]: 80
Plant response rating, Cocklebur [6, 23]: 80
Plant response rating, Cocklebur [6, 21]: 90
Plant response rating, Cocklebur [6, 22]: 95
Plant response rating, Cocklebur [6, 24]: 10
Plant response rating, Cocklebur [6, 25]: 50
Plant response rating, Cocklebur [6, 26]: 70
Plant response rating, Johnsongrass [7, 19]: 0
Johnsongrass plant response rating (0 to 100 scale) [7, 20]: 10
Plant response rating, Johnsongrass [7, 23]: 10
Plant response rating, Johnsongrass [7, 21]: 40
Plant response rating, Johnsongrass [7, 22]: 45
Plant response rating, Johnsongrass [7, 24]: 0
Plant response rating, Johnsongrass [7, 25]: 0
Plant response rating, Johnsongrass [7, 26]: 0
Plant response rating, Ragweed [8, 19]: 75
Ragweed plant response rating (0 to 100 scale) [8, 20]: 80
Plant response rating, Ragweed [8, 21]: 90
Plant response rating, Ragweed [8, 22]: 95
Plant response rating, Ragweed [8, 24]: 55
Plant response rating, Ragweed [8, 25]: 70
Plant response rating, Ragweed [8, 26]: 80
Plant response rating, Soybean [9, 19]: 80
Soybean plant response rating (0 to 100 scale) [9, 20]: 80
Plant response rating, Soybean [9, 21]: 85
Plant response rating, Soybean [9, 22]: 95
Plant response rating, Blackgrass [10, 19]: 0
Blackgrass plant response rating (0 to 100 scale) [10, 20]: 0
Plant response rating, Blackgrass [10, 23]: 5
Plant response rating, Blackgrass [10, 21]: 0
Plant response rating, Blackgrass [10, 22]: 0
Plant response rating, Blackgrass [10, 24]: 0
Plant response rating, Blackgrass [10, 25]: 0
Plant response rating, Blackgrass [10, 26]: 0
Plant response rating, Morningglory [11, 19]: 20
Morningglory plant response rating (0 to 100 scale) [11, 20]: 85
Plant response rating, Morningglory [11, 21]: 90
Plant response rating, Morningglory [11, 22]: 90
Plant response rating, Morningglory [11, 24]: 0
Plant response rating, Morningglory [11, 25]: 55
Plant response rating, Morningglory [11, 26]: 65
Plant response rating, Foxtail, Giant [12, 19]: 65
Foxtail, Giant plant response rating (0 to 100 scale) [12, 20]: 70
Plant response rating, Foxtail, Giant [12, 23]: 65
Plant response rating, Foxtail, Giant [12, 21]: 75
Plant response rating, Foxtail, Giant [12, 22]: 80
Plant response rating, Foxtail, Giant [12, 24]: 0
Plant response rating, Foxtail, Giant [12, 25]: 5
Plant response rating, Foxtail, Giant [12, 26]: 10
Plant response rating, Foxtail, Green [13, 19]: 10
Foxtail, Green plant response rating (0 to 100 scale) [13, 20]: 70
Plant response rating, Foxtail, Green [13, 23]: 90
Plant response rating, Foxtail, Green [13, 21]: 90
Plant response rating, Foxtail, Green [13, 22]: 90
Plant response rating, Foxtail, Green [13, 24]: 0
Plant response rating, Foxtail, Green [13, 25]: 0
Plant response rating, Foxtail, Green [13, 26]: 50
Plant response rating, Wheat [14, 19]: 0
Wheat plant response rating (0 to 100 scale) [14, 20]: 5
Plant response rating, Wheat [14, 21]: 10
Plant response rating, Wheat [14, 22]: 10
Plant response rating, Wheat [14, 24]: 0
Plant response rating, Wheat [14, 25]: 0
Plant response rating, Wheat [14, 26]: 0
Plant response rating, Oat, Wild [15, 19]: 0
Plant response rating, Oat, Wild [15, 21]: 30
Plant response rating, Oat, Wild [15, 22]: 40
Plant response rating, Oat, Wild [15, 24]: 0
Plant response rating, Oat, Wild [15, 25]: 0
Plant response rating, Oat, Wild [15, 26]: 0
Plant response rating, Bromegrass, Downy [16, 19]: 0
Bromegrass, Downy plant response rating (0 to 100 scale) [16, 20]: 0
Plant response rating, Bromegrass, Downy [16, 23]: 0
Plant response rating, Bromegrass, Downy [16, 21]: 0
Plant response rating, Bromegrass, Downy [16, 22]: 20
Plant response rating, Bromegrass, Downy [16, 24]: 0
Plant response rating, Bromegrass, Downy [16, 25]: 0
Plant response rating, Bromegrass, Downy [16, 26]: 0
Plant response rating, Nutsedge, Yellow [17, 19]: 35
Nutsedge, Yellow plant response rating (0 to 100 scale) [17, 20]: 65
Plant response rating, Nutsedge, Yellow [17, 21]: 65
Plant response rating, Nutsedge, Yellow [17, 22]: 75
Plant response rating, Nutsedge, Yellow [17, 24]: 40
Plant response rating, Nutsedge, Yellow [17, 25]: 70
Plant response rating, Nutsedge, Yellow [17, 26]: 75
Plant response rating, Kochia [18, 19]: 75
Kochia plant response rating (0 to 100 scale) [18, 20]: 85
Plant response rating, Kochia [18, 23]: 85
Plant response rating, Kochia [18, 21]: 90
Plant response rating, Kochia [18, 22]: 90
Plant response rating, Kochia [18, 24]: 45
Plant response rating, Kochia [18, 25]: 75
Plant response rating, Kochia [18, 26]: 85
